From patent US12077503B2, “Substituted cyclic amides and their use as herbicides” (FMC CORPORATION, priority 2015, dated 2024)

How the values were obtained:
Type in all cases: in vivo
[1] = test system: Kochia (Kochia scoparia); assay: Test A preemergence; details: Bassia scoparia, pre-emergence, 240 h, read-out: Plant response rating, Kochia; for pest or weed control at 125 g/ha: 125 g ai/ha, preemergence, visual rating after approx. 10 d, 0 to 100 scale where 0 is no effect and 100 is complete control; for pest or weed control at 31 g/ha: Preemergence, 31 g ai/ha, 0 to 100 scale (0 no effect, 100 complete control)
Procedure, shortened: (§1)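 Preemergence soil spray on seeded pots or post-emergence spray on 1–2 leaf plants, in loam–sand blend. Greenhouse ~10 d. Visual rating 0–100 against untreated plants.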

[2] = test system: barnyardgrass (Echinochloa crus-galli); assay: Test A preemergence; details: Echinochloa crus-galli, pre-emergence, 240 h, read-out: Plant response rating, Barnyardgrass; for pest or weed control at 125 g/ha: 125 g ai/ha, preemergence, visual rating after approx. 10 d, 0 to 100 scale where 0 is no effect and 100 is complete control; for pest or weed control at 31 g/ha: Preemergence, 31 g ai/ha, 0 to 100 scale (0 no effect, 100 complete control)
Procedure, shortened: as §1

[3] = test system: giant foxtail (Setaria faberii); assay: Test A preemergence; details: Setaria faberi, pre-emergence, 240 h, read-out: Plant response rating, Foxtail, Giant; for pest or weed control at 125 g/ha: 125 g ai/ha, preemergence, visual rating after approx. 10 d, 0 to 100 scale where 0 is no effect and 100 is complete control; for pest or weed control at 31 g/ha: Preemergence, 31 g ai/ha, 0 to 100 scale (0 no effect, 100 complete control)
Procedure, shortened: as §1

[4] = test system: ragweed (common ragweed, Ambrosia elatior); assay: Test A preemergence; details: Ambrosia artemisiifolia, pre-emergence, 240 h, read-out: Plant response rating, Ragweed; for pest or weed control at 125 g/ha: 125 g ai/ha, preemergence, visual rating after approx. 10 d, 0 to 100 scale where 0 is no effect and 100 is complete control; for pest or weed control at 31 g/ha: Preemergence, 31 g ai/ha, 0 to 100 scale (0 no effect, 100 complete control)
Procedure, shortened: as §1

[5] = test system: ryegrass, Italian (Italian ryegrass, Lolium multiflorum); assay: Test A preemergence; details: Lolium multiflorum, pre-emergence, 240 h, read-out: Plant response rating, Ryegrass, Italian; for pest or weed control at 125 g/ha: 125 g ai/ha, preemergence, visual rating after approx. 10 d, 0 to 100 scale where 0 is no effect and 100 is complete control; for pest or weed control at 31 g/ha: Preemergence, 31 g ai/ha, 0 to 100 scale (0 no effect, 100 complete control)
Procedure, shortened: as §1

[6] = test system: Galium (catchweed bedstraw, Galium aparine); assay: Test A postemergence; details: Galium, post-emergence, 240 h; for pest or weed control at 125 g/ha: 125 g ai/ha, postemergence, visual injury rating after approximately 10 d, read-out: Galium plant response rating (0 to 100 scale, 0 no effect, 100 complete control); for pest or weed control at 31 g/ha: Postemergence, 31 g ai/ha, visual injury after approx. 10 d, 0 to 100 scale, 0 no effect, 100 complete control, read-out: Plant response rating, Galium
Procedure, shortened: as §1

[7] = test system: Kochia (Kochia scoparia); assay: Test A postemergence; details: Bassia scoparia, post-emergence, 240 h; for pest or weed control at 125 g/ha: 125 g ai/ha, postemergence, visual injury rating after approximately 10 d, read-out: Kochia plant response rating (0 to 100 scale, 0 no effect, 100 complete control); for pest or weed control at 31 g/ha: Postemergence, 31 g ai/ha, visual injury after approx. 10 d, 0 to 100 scale, 0 no effect, 100 complete control, read-out: Plant response rating, Kochia
Procedure, shortened: as §1

[8] = test system: barnyardgrass (Echinochloa crus-galli); assay: Test A postemergence; details: Echinochloa crus-galli, post-emergence, 240 h; for pest or weed control at 125 g/ha: 125 g ai/ha, postemergence, visual injury rating after approximately 10 d, read-out: Barnyardgrass plant response rating (0 to 100 scale, 0 no effect, 100 complete control); for pest or weed control at 31 g/ha: Postemergence, 31 g ai/ha, visual injury after approx. 10 d, 0 to 100 scale, 0 no effect, 100 complete control, read-out: Plant response rating, Barnyardgrass
Procedure, shortened: as §1

[9] = test system: blackgrass (Alopecurus myosuroides); assay: Test A postemergence; details: Alopecurus myosuroides, post-emergence, 240 h; for pest or weed control at 125 g/ha: 125 g ai/ha, postemergence, visual injury rating after approximately 10 d, read-out: Blackgrass plant response rating (0 to 100 scale, 0 no effect, 100 complete control); for pest or weed control at 31 g/ha: Postemergence, 31 g ai/ha, visual injury after approx. 10 d, 0 to 100 scale, 0 no effect, 100 complete control, read-out: Plant response rating, Blackgrass
Procedure, shortened: as §1

[10] = test system: corn (Zea mays); assay: Test A postemergence; details: Zea mays, post-emergence, 240 h; for plant injury at 125 g/ha: 125 g ai/ha, postemergence, visual injury rating after approximately 10 d, read-out: Corn plant response rating (0 to 100 scale, 0 no effect, 100 complete control); for Corn plant response rating (crop injury, 0 = no effect, 100 = complete kill) at 31 g/ha: Postemergence, 31 g ai/ha, visual injury after approx. 10 d, 0 to 100 scale, 100 complete control
Procedure, shortened: as §1

[11] = test system: giant foxtail (Setaria faberii); assay: Test A postemergence; details: Setaria faberi, post-emergence, 240 h; for pest or weed control at 125 g/ha: 125 g ai/ha, postemergence, visual injury rating after approximately 10 d, read-out: Foxtail, Giant plant response rating (0 to 100 scale, 0 no effect, 100 complete control); for pest or weed control at 31 g/ha: Postemergence, 31 g ai/ha, visual injury after approx. 10 d, 0 to 100 scale, 0 no effect, 100 complete control, read-out: Plant response rating, Foxtail, Giant
Procedure, shortened: as §1

[12] = test system: pigweed (Amaranthus retroflexus); assay: Test A postemergence; details: Amaranthus retroflexus, post-emergence, 240 h; for pest or weed control at 125 g/ha: 125 g ai/ha, postemergence, visual injury rating after approximately 10 d, read-out: Pigweed plant response rating (0 to 100 scale, 0 no effect, 100 complete control); for pest or weed control at 31 g/ha: Postemergence, 31 g ai/ha, visual injury after approx. 10 d, 0 to 100 scale, 0 no effect, 100 complete control, read-out: Plant response rating, Pigweed
Procedure, shortened: as §1

[13] = test system: ragweed (common ragweed, Ambrosia elatior); assay: Test A postemergence; details: Ambrosia artemisiifolia, post-emergence, 240 h; for pest or weed control at 125 g/ha: 125 g ai/ha, postemergence, visual injury rating after approximately 10 d, read-out: Ragweed plant response rating (0 to 100 scale, 0 no effect, 100 complete control); for pest or weed control at 31 g/ha: Postemergence, 31 g ai/ha, visual injury after approx. 10 d, 0 to 100 scale, 0 no effect, 100 complete control, read-out: Plant response rating, Ragweed
Procedure, shortened: as §1

[14] = test system: ryegrass, Italian (Italian ryegrass, Lolium multiflorum); assay: Test A postemergence; details: Lolium multiflorum, post-emergence, 240 h; for pest or weed control at 125 g/ha: 125 g ai/ha, postemergence, visual injury rating after approximately 10 d, read-out: Ryegrass, Italian plant response rating (0 to 100 scale, 0 no effect, 100 complete control); for pest or weed control at 31 g/ha: Postemergence, 31 g ai/ha, visual injury after approx. 10 d, 0 to 100 scale, 0 no effect, 100 complete control, read-out: Plant response rating, Ryegrass, Italian
Procedure, shortened: as §1

[15] = test system: wheat (Triticum aestivum); assay: Test A postemergence; details: Triticum aestivum, post-emergence, 240 h; for plant injury at 125 g/ha: 125 g ai/ha, postemergence, visual injury rating after approximately 10 d, read-out: Wheat plant response rating (0 to 100 scale, 0 no effect, 100 complete control); for plant injury at 31 g/ha: Postemergence, 31 g ai/ha, visual injury after approx. 10 d, 0 to 100 scale, 0 no effect, 100 complete control, read-out: Plant response rating, Wheat
Procedure, shortened: as §1

Compound | pest or weed control at 125 g/ha [1] [%] | pest or weed control at 31 g/ha [1] [%] | pest or weed control at 125 g/ha [2] [%] | pest or weed control at 31 g/ha [2] [%] | pest or weed control at 125 g/ha [3] [%] | pest or weed control at 31 g/ha [3] [%] | pest or weed control at 125 g/ha [4] [%] | pest or weed control at 31 g/ha [4] [%] | pest or weed control at 125 g/ha [5] [%] | pest or weed control at 31 g/ha [5] [%] | pest or weed control at 125 g/ha [6] [%] | pest or weed control at 31 g/ha [6] [%] | pest or weed control at 125 g/ha [7] [%] | pest or weed control at 31 g/ha [7] [%] | pest or weed control at 125 g/ha [8] [%] | pest or weed control at 31 g/ha [8] [%] | pest or weed control at 125 g/ha [9] [%] | pest or weed control at 31 g/ha [9] [%] | plant injury at 125 g/ha [10] [%] | Corn plant response rating (crop injury, 0 = no effect, 100 = complete kill) at 31 g/ha [10] [%] | further results
CN1C[C@H](c2ccc(C(F)F)cc2)[C@@H](C(=O)Nc2ccccc2F)C1=O [Compound 803] | 70 | 50 | 90 | 70 | 90 | 90 | 60 | 30 | 0 | 0 | 60 | 30 | 70 | 50 | 80 | 80 | 50 | 20 | 90 | 20 | pest or weed control at 125 g/ha [11]: 90%; pest or weed control at 31 g/ha [11]: 90%; pest or weed control at 125 g/ha [12]: 40%; pest or weed control at 31 g/ha [12]: 30%; pest or weed control at 125 g/ha [13]: 30%; pest or weed control at 31 g/ha [13]: 30%; pest or weed control at 125 g/ha [14]: 40%; pest or weed control at 31 g/ha [14]: 0%; plant injury at 125 g/ha [15]: 40%; plant injury at 31 g/ha [15]: 0%
CN1CC[C@H](c2cccc(OC(F)(F)F)c2)[C@@H](C(=O)Nc2cccc(F)c2F)C1=O [Compound 807] | 50 | 0 | 100 | 100 | 100 | 100 | 0 | 0 | 70 | 20 | 0 | 0 | 0 | 0 | 80 | 70 | 0 | 0 | 70 | 0 | pest or weed control at 125 g/ha [11]: 80%; pest or weed control at 31 g/ha [11]: 70%; pest or weed control at 125 g/ha [12]: 0%; pest or weed control at 31 g/ha [12]: 0%; pest or weed control at 125 g/ha [13]: 0%; pest or weed control at 31 g/ha [13]: 0%; pest or weed control at 125 g/ha [14]: 0%; pest or weed control at 31 g/ha [14]: 0%; plant injury at 125 g/ha [15]: 30%; plant injury at 31 g/ha [15]: 0%
CN1CC[C@H](c2cccc(OC(F)(F)F)c2)[C@@H](C(=O)Nc2cccc(Cl)c2F)C1=O [Compound 810] | 0 | 0 | 90 | 90 | 90 | 70 | 0 | 0 | 20 | 0 | 0 | 0 | 0 | 0 | 70 | 40 | 0 | 0 | 0 | 0 | pest or weed control at 125 g/ha [11]: 80%; pest or weed control at 31 g/ha [11]: 60%; pest or weed control at 125 g/ha [12]: 0%; pest or weed control at 31 g/ha [12]: 0%; pest or weed control at 125 g/ha [13]: 0%; pest or weed control at 31 g/ha [13]: 0%; pest or weed control at 125 g/ha [14]: 0%; pest or weed control at 31 g/ha [14]: 0%; plant injury at 125 g/ha [15]: 0%; plant injury at 31 g/ha [15]: 0%
